From PMC12024474 (RSC Medicinal Chemistry, 2025)
Like-named read-outs stand apart in the source and are kept apart here. Where a SMILES comes first, the peptide text is derived from it. [ ]: non-standard residue; d: D form. Hmp(2R,3S) = CC[C@H](C)[C@@H](O)C(=O)O; Sta = CC(C)C[C@H](N)[C@@H](O)CC(=O)O; dNMeF = CN[C@H](Cc1ccccc1)C(=O)O; NMeQ = CN[C@@H](CCC(N)=O)C(=O)O

Key:
CatE = conditions: cited from earlier work
MDA-MB-231 cells = assay: MTT cell viability assay; type: cell-based, human; conditions: MDA-MB-231, 48 h treatment

Compound	preference for CatE compared to CatD (CatE)	preference for CatE compared to CatD (CatE; listed as grassystatin C) [fold]	IC50 (cell viability) (MDA-MB-231 cells) [µg/mL]
CC[C@H](C)[C@H](NC(=O)C[C@H](O)[C@H](CC(C)C)NC(=O)[C@H](CCC(N)=O)N(C)C(=O)[C@H](CC(C)C)NC(=O)[C@H](O)[C@@H](C)CC)C(=O)NCC(=O)N(C)[C@H](Cc1ccccc1)C(=O)N1CCC[C@H]1C(=O)OC [Grassystatin C, grassystatin C] ({Hmp(2R,3S)}-L[NMeQ][Sta]IG[dNMeF]P-OMe)	about 30 fold	> 30	
TRAIL: tumor necrosis factor-related apoptosis-inducing ligand			0.025
